What was measured:
[1] = Dissociation constant, pKa of compound; format: physicochemical
[2] = Clearance in dog at 1 mg/kg, iv by LC-MS/MS analysis; format: ADME, organism-based, Canis lupus familiaris; conditions: in vivo
[3] = Volume of distribution at steady state in rat at 2 mg/kg, iv by LC-MS/MS analysis; format: ADME, organism-based; conditions: in vivo, read-out: Vdss
[4] = Stability in human liver microsomes at 2 uM measured upto 30 mins in presence of NADPH by LC-MS/MS analysis; format: ADME, Microsome; conditions: read-out: Stability
[5] = Bioavailability in rat; format: ADME, organism-based; conditions: in vivo
[6] = Clearance in rat at 2 mg/kg, iv by LC-MS/MS analysis; format: ADME, organism-based; conditions: in vivo
[7] = Ratio of free drug concentration in CSF to plasma of dog; format: ADME, Canis lupus familiaris; conditions: CSF and plasma
[8] = Stability in mouse liver microsomes at 2 uM measured upto 30 mins in presence of NADPH by LC-MS/MS analysis; format: ADME, Microsome; conditions: read-out: Stability
[9] = Permeability in MDCK cells; format: ADME, cell-based, Canis lupus familiaris; conditions: dog, read-out: permeability
[10] = Volume of distribution at steady state in dog at 1 mg/kg, iv by LC-MS/MS analysis; format: ADME, organism-based, Canis lupus familiaris; conditions: in vivo, read-out: Vdss
[11] = Stability in dog liver microsomes at 2 uM measured upto 30 mins in presence of NADPH by LC-MS/MS analysis; format: ADME, Canis lupus familiaris, Microsome; conditions: read-out: Stability
[12] = Stability in rat liver microsomes at 2 uM measured upto 30 mins in presence of NADPH by LC-MS/MS analysis; format: ADME, Microsome; conditions: read-out: Stability
[13] = Lipophilicity, log P of the compound; format: physicochemical; conditions: octanol/water
[14] = Drug accumulation in human HepG2 cells lysosomes assessed as maximum fluorescence response after 24 hrs by Lysotracker Green DND-26 dye based assay; format: ADME, cell-based; conditions: hepg2, 24 h
[15] = clinical; conditions: human, CSF and plasma
[16] = Oral clearance in human; format: ADME

Row | Compound | pKa [1] | clearance [2] | Vd [3] | remaining at 0.5 h, 2 µM [4] | bioavailability [5] | clearance [6] | Kp uu [7] | remaining at 0.5 h, 2 µM [8] | Papp [9] | Vd [10] | remaining at 0.5 h, 2 µM [11] | remaining at 0.5 h, 2 µM [12] | logP [13] | Rmax [14] | Kp uu [15] | CL/F [16]
1 | C[C@@H]1C[C@H]1COC(C)(C)[C@@H]1C[C@H]1[C@]12CN(c3ncccn3)C[C@H]1CSC(N)=N2 |  |  |  | 31% |  |  |  | 98% | 36 ×10⁻⁶ cm/s |  | 79% | 98% |  |  |  | 
2 | C[C@@H]1C[C@H]1CNC(=O)[C@@H]1C[C@H]1[C@]12CN(c3ncccn3)C[C@H]1CSC(N)=N2 | 8 |  |  | 13% |  |  |  | 33% | 8 ×10⁻⁶ cm/s |  | 28% | 55% | 2 |  |  | 
3 | C[C@@H]1C[C@H]1CNC(=O)[C@@H]1C[C@H]1[C@]12COC[C@H]1CSC(N)=N2 | 8 |  |  | 19% |  |  |  | 23% | 14 ×10⁻⁶ cm/s |  | 8% | 84% | 0.8 |  |  | 
4 | C[C@@]1(c2cc(-c3cncnc3)c(F)cc2F)CCSC(N)=N1 [LY-2811376] | 8.8 |  |  |  |  |  |  |  | 60 ×10⁻⁶ cm/s |  |  |  | 2.9 | 3364 |  | 
5 | NC1=N[C@@]2(c3cc(NC(=O)c4ccc(F)cn4)ccc3F)COC[C@H]2CS1 [LY-2886721] | 7.7 | 4.9 mL/min/kg | 10.4 L/kg | 11% | 30% | 94 mL/min/kg | 0.9 | 33% | 55 ×10⁻⁶ cm/s | 2.3 L/kg | 0% | 19% | 2.1 | 7863 |  | 

Further lines, results first:

Row | pKa [1] | clearance [2] | Vd [3] | remaining at 0.5 h, 2 µM [4] | bioavailability [5] | clearance [6] | Kp uu [7] | remaining at 0.5 h, 2 µM [8] | Papp [9] | Vd [10] | remaining at 0.5 h, 2 µM [11] | remaining at 0.5 h, 2 µM [12] | logP [13] | Rmax [14] | Kp uu [15] | CL/F [16] | Compound
6 | 7.7 | 2.7 mL/min/kg | 2.2 L/kg | 13% | 55% | 15 mL/min/kg | 0.2 | 22% | 30 ×10⁻⁶ cm/s | 0.52 L/kg | 7% | 7% | 2.8 |  |  |  | NC1=N[C@@]2(c3cc(NC(=O)c4ncc(F)cc4F)ccc3F)CN(c3ncc(F)cn3)C[C@H]2CS1
7 | 6.4 | 6 mL/min/kg | 2.87 L/kg |  |  | 53.2 mL/min/kg | 1 |  | 59 ×10⁻⁶ cm/s | 2.1 L/kg |  |  | 1.3 | 20 |  |  | Cl.NC1=N[C@@]2(c3ccns3)CN(c3ncc(F)cn3)C[C@H]2CS1
8 | 6.6 |  |  |  |  |  |  |  |  |  |  |  | 2.3 | 91 |  |  | Cl.N#Cc1ccc([C@]23CN(c4ncc(F)cn4)C[C@H]2CSC(N)=N3)s1
9 | 7.6 | 5.2 mL/min/kg | 5.2 L/kg | 12% | 47% | 20 mL/min/kg | 0.9 | 27% | 19 ×10⁻⁶ cm/s | 0.78 L/kg | 50% | 7% | 3.2 |  | 1 | 26 mL/min/kg | COc1cnc(C(=O)Nc2ccc(F)c([C@]34CN(c5ncc(F)cn5)C[C@H]3CSC(N)=N4)c2)cn1
10 | 7.6 |  |  |  |  |  |  |  | 59 ×10⁻⁶ cm/s |  |  |  | 1.9 |  |  |  | Cl.Cl.NC1=N[C@@]2(c3cccs3)CN(c3ncccn3)C[C@H]2CS1
11 | 7.1 |  |  |  |  |  |  |  | 54 ×10⁻⁶ cm/s |  |  |  | 0.8 | 59 |  |  | Cl.NC1=N[C@@]2(c3cnccn3)CN(c3ncc(F)cn3)C[C@H]2CS1
12 | 7.5 |  |  |  |  |  |  |  | 60 ×10⁻⁶ cm/s |  |  |  | 2.4 | 4090 |  |  | Cl.NC1=N[C@@]2(c3cccs3)CN(c3ncc(F)cn3)C[C@H]2CS1
13 | 7.9 | 1.6 mL/min/kg | 2.5 L/kg | 13% | 72% | 7.8 mL/min/kg | 0.1 | 25% | 33 ×10⁻⁶ cm/s | 1.1 L/kg | 8% | 16% | 3.1 |  |  |  | NC1=N[C@@]2(c3cc(NC(=O)c4ccc(F)cn4)ccc3F)CN(c3ncc(F)cn3)C[C@H]2CS1 (relative stereo)

Reference: ChEMBL document CHEMBL5033995, “Discovery and Early Clinical Development of LY3202626, a Low-Dose, CNS-Penetrant BACE Inhibitor” (J Med Chem, 2021)
